Read-outs that look alike come from different tables or passages of the source.
What was measured:
[1] = tested on: acutely dissociated and purified rat OPCs; assay: Acute OL differentiation assay (MBP expression/cell, immunofluorescent image quantification); format: cell-based; conditions: for activation at 0.4 µM: test compound at 0.4 uM, read-out: 0.4 uM (% Quet)
Method in brief: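 This acute differentiation assay used purified rat OPCs from postnatal day 6–7 pups, seeded into PDL/laminin-coated 96-well plates in differentiation medium lacking PDGF and FGF. Compounds were applied in quadruplicate after a 1–2 h preincubation at 37 °C, 10 % CO2, with 0.1 % DMSO negative and 40 ng/ml T3 positive controls in eight wells. After fixation on DIV4, anti-MBP immunofluorescence images yielded MBP expression/cell.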

expanded OPCs = assay: cells; conditions: for viability at 0.1 µM / viability at 1 µM / viability at 10 µM: Rattus norvegicus, 72 h
Method in brief: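 Toxicity screen: compounds added at 0.1, 1 and 10 µM to PDGF-AA-expanded OPCs in 96-well plates, 3-day incubation at 37 °C, 10% CO2, then alamarBlue 1:10 for 4 h with fluorescence readout. Results set screening doses of 10/2, 2/0.4 or 0.4/0.08 µM.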

[2] = Rattus norvegicus, test compound at 2 uM, MBP expression relative to quetiapine, NCC library screen, sheet "All OLga data", read-out: 2 uM (% Quet)
[3] = Rattus norvegicus, test compound at 10 uM, MBP expression relative to quetiapine, NCC library screen, sheet "All OLga data", read-out: 10 uM (% Quet)
[4] = alamarBlue viability of expanded OPCs, compound at 0.1 µM, relative to DMSO control
[5] = alamarBlue viability of expanded OPCs, compound at 1 µM, relative to DMSO control
[6] = alamarBlue viability of expanded OPCs, compound at 10 µM, relative to DMSO control
[7] = Rattus norvegicus, 2 uM test compound, relative to quetiapine, sheet "All OLga data", read-out: OL differentiation, 2 uM (% Quet)
[8] = Rattus norvegicus, 10 uM test compound, relative to quetiapine, sheet "All OLga data", read-out: OL differentiation, 10 uM (% Quet)
[9] = read-out: 0.1 µM (% DMSO), alamarBlue viability of expanded OPCs, compound at 0.1 µM, sheet All Tox data
[10] = read-out: 1 µM (% DMSO), alamarBlue viability of expanded OPCs, compound at 1 µM, sheet All Tox data
[11] = read-out: 10 µM (% DMSO), alamarBlue viability of expanded OPCs, compound at 10 µM, sheet All Tox data
[12] = Rattus norvegicus, NCC library screen, sheet "All OLga data", relative to quetiapine
[13] = Rattus norvegicus, test compound at 2 uM, NCC library screen, sheet "All OLga data", relative to quetiapine, read-out: 2 uM (% Quet)
[14] = read-out: 0.1 µM (% DMSO), alamarBlue viability, NCC library compound at 0.1 µM, sheet "All Tox data"
[15] = read-out: 1 µM (% DMSO), alamarBlue viability, NCC library compound at 1 µM, sheet "All Tox data"
[16] = read-out: 10 µM (% DMSO), alamarBlue viability, NCC library compound at 10 µM, sheet "All Tox data"

OC(Cn1cncn1)(Cn1cncn1)c1ccc(F)cc1F [Fluconazole]
activation at 2 µM [1, 2]: 0.9% | activation at 10 µM [1, 3]: -44.2% | 0.1 µM (% DMSO) (expanded OPCs; [4]): 89.6 % DMSO | 1 µM (% DMSO) (expanded OPCs; [5]): 88.1 % DMSO | 10 µM (% DMSO) (expanded OPCs; [6]): 92.1 % DMSO

CC(O)(CS(=O)(=O)c1ccc(F)cc1)C(=O)Nc1ccc(C#N)c(C(F)(F)F)c1 (stereo not drawn) [Bicalutamide]
activation at 2 µM [1, 7]: -3% | activation at 10 µM [1, 8]: 6.9% | viability at 0.1 µM (expanded OPCs; [9]): 93.3% | viability at 1 µM (expanded OPCs; [10]): 96% | viability at 10 µM (expanded OPCs; [11]): 119%

CC(C)(C(=O)c1cccnc1)c1cccnc1 [Metyrapone]
activation at 2 µM [1, 2]: 9.9% | activation at 10 µM [1, 3]: -15% | 0.1 µM (% DMSO) (expanded OPCs; [4]): 90.5 % DMSO | 1 µM (% DMSO) (expanded OPCs; [5]): 94.0 % DMSO | 10 µM (% DMSO) (expanded OPCs; [6]): 93.4 % DMSO

CS(=O)(=O)c1ccc(-c2cc(Br)sc2-c2ccc(F)cc2)cc1 [DuP 697]
activation at 0.4 µM [1, 12]: -42.3% | activation at 2 µM [1, 13]: -109% | viability at 0.1 µM (expanded OPCs; [14]): 89.6% | viability at 1 µM (expanded OPCs; [15]): 114% | viability at 10 µM (expanded OPCs; [16]): 10.7%

Cc1ccsc1C(=CCCN1CCC[C@@H](C(=O)O)C1)c1sccc1C [Tiagabine]
activation at 2 µM [1, 7]: -1.8% | activation at 10 µM [1, 8]: 8.7% | viability at 0.1 µM (expanded OPCs; [9]): 99.9% | viability at 1 µM (expanded OPCs; [10]): 89.2% | viability at 10 µM (expanded OPCs; [11]): 92.7%

COc1cc(N)c(Cl)cc1C(=O)NC1CCN(CCCOc2ccc(F)cc2)CC1OC (stereo not drawn) [Cisapride]
activation at 2 µM [1, 7]: 11.3% | activation at 10 µM [1, 8]: 25.5% | viability at 0.1 µM (expanded OPCs; [9]): 80.4% | viability at 1 µM (expanded OPCs; [10]): 89% | viability at 10 µM (expanded OPCs; [11]): 73.6%

CCC1(c2ccccc2)C(=O)NCNC1=O [Primidone]
activation at 2 µM [1, 13]: 1.4% | activation at 10 µM ([1]; Rattus norvegicus, test compound at 10 uM, NCC library screen, sheet "All OLga data", relative to quetiapine, read-out: 10 uM (% Quet)): 15.6% | viability at 0.1 µM (expanded OPCs; [14]): 86.9% | viability at 1 µM (expanded OPCs; [15]): 89.5% | viability at 10 µM (expanded OPCs; [16]): 82.3%

CN(C)CCOc1ccc(/C(=C(/CCCl)c2ccccc2)c2ccccc2)cc1 [Toremifene, reference compound]
activation at 0.4 µM [1, 12]: 74.9% | activation at 2 µM [1, 13]: -169% | EC50 ([1]; Rattus norvegicus, average EC50 for induction of OL differentiation from independent biological replicates, eight concentrations): 100 nM | hit in OL differentiation assay, MRF-TMC ([1]; ● = confirmed hit in this paper's assay): ● | viability at 0.1 µM (expanded OPCs; [14]): 174% | viability at 1 µM (expanded OPCs; [15]): 57.8% | viability at 10 µM (expanded OPCs; [16]): 9.9%

CC(C)NCC(O)c1cc(O)cc(O)c1 (stereo not drawn) [Metaproterenol]
activation at 2 µM [1, 2]: -0.7% | activation at 10 µM [1, 3]: 3.5% | 0.1 µM (% DMSO) (expanded OPCs; [4]): 89.2 % DMSO | 1 µM (% DMSO) (expanded OPCs; [5]): 91.6 % DMSO | 10 µM (% DMSO) (expanded OPCs; [6]): 91.1 % DMSO

Cc1ccc(-c2nc3ccc(C)cn3c2CC(=O)N(C)C)cc1 [Zolpidem]
activation at 2 µM [1, 7]: -14% | activation at 10 µM [1, 8]: -2.7% | viability at 0.1 µM (expanded OPCs; [9]): 86.9% | viability at 1 µM (expanded OPCs; [10]): 90.8% | viability at 10 µM (expanded OPCs; [11]): 93.5%

CN(CCO)CC(O)Cn1cnc2c1c(=O)n(C)c(=O)n2C (stereo not drawn) [Jupal]
2 uM (% Quet) ([1]; test compound at 2 uM, NCC library screen, sheet "All OLga data", relative to quetiapine): 0.8 % Quet | 10 uM (% Quet) ([1]; test compound at 10 uM, NCC library screen, sheet "All OLga data", relative to quetiapine): 6.5 % Quet | 0.1 µM (% DMSO) (expanded OPCs; alamarBlue viability, NCC library compound at 0.1 µM, sheet "All Tox data"): 92.2 % DMSO | 1 µM (% DMSO) (expanded OPCs; alamarBlue viability, NCC library compound at 1 µM, sheet "All Tox data"): 91.0 % DMSO | 10 µM (% DMSO) (expanded OPCs; alamarBlue viability, NCC library compound at 10 µM, sheet "All Tox data"): 92.4 % DMSO

C[C@H]1c2cccc(O)c2C(=O)C2=C(O)[C@]3(O)C(=O)C(C(N)=O)=C(O)[C@@H](N(C)C)[C@@H]3[C@@H](O)[C@@H]21 [Doxycycline]
activation at 2 µM [1, 2]: 4.2% | activation at 10 µM [1, 3]: -18.6% | 0.1 µM (% DMSO) (expanded OPCs; [4]): 95.2 % DMSO | 1 µM (% DMSO) (expanded OPCs; [5]): 91.4 % DMSO | 10 µM (% DMSO) (expanded OPCs; [6]): 82.8 % DMSO

Nc1nc2ccc(Cl)cc2c2nc(-c3ccco3)nn12 [CGS 15943]
activation at 2 µM ([1]; Rattus norvegicus, read-out: OL differentiation, 2 uM (% Quet)): -24.4% | activation at 10 µM ([1]; Rattus norvegicus, read-out: OL differentiation, 10 uM (% Quet)): -126% | viability at 0.1 µM (expanded OPCs; read-out: 0.1 µM (% DMSO)): 81.2% | viability at 1 µM (expanded OPCs; read-out: 1 µM (% DMSO)): 94.8% | viability at 10 µM (expanded OPCs; read-out: 10 µM (% DMSO)): 112%

C[C@@H](O)[C@H]1C(=O)N2C(C(=O)O)=C(S[C@@H]3CN[C@H](C(=O)N(C)C)C3)[C@H](C)[C@H]12 [Meropenem]
activation at 2 µM [1, 7]: -4.2% | activation at 10 µM [1, 8]: 2.8% | viability at 0.1 µM (expanded OPCs; [9]): 95.8% | viability at 1 µM (expanded OPCs; [10]): 98.1% | viability at 10 µM (expanded OPCs; [11]): 102%

From publication PMC5011342, “A high throughput drug screening assay to identify compounds that promote oligodendrocyte differentiation using acutely dissociated and purified oligodendrocyte precursor cells” (BMC Research Notes, 2016)
